ClCc1ccc(Cl)nc1
Details	solubility (mole fraction)
in acetone, 278.85 K	0.0226
in acetone, 281.75 K	0.0249
in acetone, 283.55 K	0.0267
in acetone, 284.65 K	0.0278
in acetone, 288.95 K	0.0325
in acetone, 291.15 K	0.0353
in acetone, 293.65 K	0.0385
in acetone, 295.85 K	0.0415
in acetone, 297.65 K	0.0442
in acetone, 300.35 K	0.0486
in acetone, 302.95 K	0.0528
in acetone, 304.85 K	0.0566
in acetone, 307.05 K	0.0604
in chloroform, 275.85 K	0.0164
in chloroform, 279.35 K	0.0204
in chloroform, 281.55 K	0.0235
in chloroform, 284.35 K	0.028
in chloroform, 287.45 K	0.0339
in chloroform, 290.35 K	0.0405
in chloroform, 292.95 K	0.0473
in chloroform, 295.25 K	0.0546
in chloroform, 297.65 K	0.063
in chloroform, 298.55 K	0.0665
in chloroform, 300.45 K	0.0745
in chloroform, 302.75 K	0.0858
in chloroform, 306.95 K	0.109
in ethanol, 277.65 K	0.00332
in ethanol, 279.75 K	0.00365
in ethanol, 282.05 K	0.00406
in ethanol, 284.75 K	0.00456
in ethanol, 287.35 K	0.00521
in ethanol, 289.65 K	0.00576
in ethanol, 292.65 K	0.00661
in ethanol, 295.35 K	0.00749
in ethanol, 298.35 K	0.00859
in ethanol, 301.85 K	0.0102
in ethanol, 304.15 K	0.0112
in ethanol, 305.85 K	0.012
in ethanol, 307.25 K	0.0127
in ethyl acetate, 278.35 K	0.00447
in ethyl acetate, 280.05 K	0.00488
in ethyl acetate, 281.65 K	0.0053
in ethyl acetate, 284.75 K	0.00619
in ethyl acetate, 286.25 K	0.00667
in ethyl acetate, 288.15 K	0.00731
in ethyl acetate, 290.45 K	0.00825
in ethyl acetate, 292.95 K	0.00939
in ethyl acetate, 296.15 K	0.011
in ethyl acetate, 299.05 K	0.0125
in ethyl acetate, 302.95 K	0.0153
in ethyl acetate, 305.35 K	0.0167
in ethyl acetate, 306.45 K	0.0176
in ethyl acetate, 307.45 K	0.0184
in methanol, 277.25 K	0.00235
in methanol, 281.35 K	0.00277
in methanol, 282.75 K	0.00296
in methanol, 284.35 K	0.00319
in methanol, 288.85 K	0.00392
in methanol, 292.75 K	0.00468
in methanol, 296.05 K	0.00537
in methanol, 299.25 K	0.00607
in methanol, 303.75 K	0.00722
in methanol, 305.35 K	0.00768
in methanol, 306.55 K	0.00803
in toluene, 278.75 K	0.0191
in toluene, 281.55 K	0.0249
in toluene, 283.25 K	0.0293
in toluene, 287.35 K	0.043
in toluene, 288.15 K	0.0464
in toluene, 290.75 K	0.059
in toluene, 292.15 K	0.0671
in toluene, 293.75 K	0.0776
in toluene, 295.45 K	0.0906
in toluene, 297.75 K	0.111
in toluene, 301.65 K	0.158
in toluene, 305.55 K	0.223
in water, 277.75 K	0.000167
in water, 280.25 K	0.000174
in water, 283.75 K	0.000197
in water, 288.35 K	0.000215
in water, 292.15 K	0.000234
in water, 294.25 K	0.000249
in water, 297.65 K	0.000265
in water, 301.25 K	0.000288
in water, 302.95 K	0.000295
in water, 304.25 K	0.000308
in water, 305.85 K	0.00032
in water, 308.75 K	0.000332
in water, 309.15 K	0.00034

Source: BigSolDB 2.1
